Data from patent publication US6780854B2, “Orally active androgens” (Akzo Nobel NV, priority 1999, dated 2004).

Legend:
[1] = t1/2 after incubation with human hepatocytes (metabolic stability); type: in vitro ADME; conditions: male, cryopreserved human hepatocytes in suspension; 10 nM compound; cryopreserved human hepatocyte suspension, 37° C.; incubations stopped after 0.5, 1 and 3 h; LC-MS/MS
Protocol: Determination of t1′2 of Androgens of the Invention after Incubation with Human Hepatocytes
The half-life of a compound as a result of contact with human hepatocytes holds as a reliable indication of metabolic stability. As it is well known that the absorption of this class of steroids is high, this assay provides an in vitro model for oral activity in humans.
Hepatocytes collected from healthy young (25-45 year) male organ donors were cryo preserved in liquid nitrogen and kept there until use. They were thawed at 37° C. in a waterbath, placed immediately on ice, washed twice in one volume of cold (4° C.) incubation medium [William's medium E (without phenol red) with Glutamax I®, gentamicin 50 μg/ml, insulin 1 μM, hydrocortisone hemisuccinate 10 μM, fetal calf serum 0% (v/v)], counted and the viability checked by Trypan blue exclusion. Cells were incubated as suspensions in 12-wells (non-coated) plates at a nominal density of 0.5×10^6 cells/well in 1.5 ml medium at 37° C. with an air/O2/CO2 mixture (55/40/5). The plates were set on an orbital shaker at approximately 10 rpm.
The hepatocytes were incubated with 10 nM final concentration of the compound to be tested. The incubations were stopped after 0.5, 1 and 3 h by pipetting the whole incubation mixture into a glass tube and adding one volume of acetone on ice. The acetone was dried under a nitrogen flow at room temperature, the volume adjusted to 1.5 ml and the tubes were centrifuged at 4° C. at 10.000×g for 30 min. The de-proteinized supernatants were collected for LC-MS/MS analysis.

serum LH = test: LH suppression assay: determination of oral activity; type: in vivo; conditions: Rattus norvegicus; mature male castrated rats; po daily for 4 days in arachis oil; serum LH 3 hours after last oral dose; read-out: ED50 (po) required to suppress serum LH for 50% (±10%)
Protocol: The LH Suppression Assay: Determination of Oral Activity
The in vivo potency (po) of several androgens of the invention was determined in a mature male castrated rat model, in comparison wih Segaloff compound. In this model serum LH is high (50× fold higher than with intact rats, due to the absence of the negative feedback of testicular testosterone). These rats are po treated for 4 days daily with a given compound of the invention in a suspension fluid of arachis oil. Before dosing and 3 hours after the last oral dose blood is collected via tail vene and in the serum LH is determined. Potency (po) of the androgens (ED50) are expressed as the amount (mg/kg) of androgen which suppresses serum LH for 50% (±10%).
The rat LH Time-Resolved Immuno Fluorometric Assay (TR-IFMA) has been developed in house using home made reagents, a monoclonal catching antibody directed against the β-subunit of human chorion gonadotrophin (hCG, which cross react with rat β-subunit) and a biotin labelled detecting antibody (rabbit polyclonal antibody directed against the alfa-subunit of recombinant rat LH). Recombinant rat LH was prepared according to the methods described by Hakola et al (1997). In this two-site-IFMA, only intact rat LH is determined by a final incubation with streptavidin-europium. The detection in the IFMA is based on fluorescence of the lanthanide europium during a relative long exitation period. The concentration range of rat LH standard is 0.001-10 ng/ml, for optimal accuracy measurements of serum LH serum samples were diluted 8-times with assay buffer [Hakola, K., Boogaart, P. V., Mulders, J., de Leeuw, R., Schoonen, W., Heyst, J. V., Swolfs, A., Casteren, J. V., Huhtaniemi, I., and Kloosterboer, H. J., Recombinant rat luteinizing hormone; production by Chinese hamster ovary cells, purification and functional characterization, Molecular & Cellular Endocrinology 128, 47 (1997)].

C=C[C@@H]1CC2=CC(=O)CC[C@@H]2[C@H]2CC[C@@]3(C)C(=CC[C@@H]3O)[C@@H]21 [Example 2, (7α,17β)-7-Ethenyl-17-hydroxyestra-4,14-dien-3-one]
half-life at 10 nM [1]: 0.667 h
ED50 (serum LH): 0.5 mg/kg

CC[C@@H]1CC2=CC(=O)CC[C@@H]2[C@H]2CC[C@@]3(C)C(=CC[C@@H]3O)[C@H]12 [Example 1a, (7α,17β)-7-Ethyl-17-hydroxyestra-4,14-dien-3-one]
half-life at 10 nM [1]: 2.62 h
ED50 (serum LH): 0.2 mg/kg

C[C@@H]1CC2=CC(=O)CC[C@@H]2[C@H]2CC[C@@]3(C)C(=CC[C@@H]3O)[C@@H]21 [Segaloff compound, (7α,17β)-7-Methyl-17-hydroxyestra-4,14-dien-3-one, reference compound]
half-life at 10 nM [1]: 1 h
ED50 (serum LH): 5 mg/kg
